Results taken from patent US6573236B2, “Inhibiting MOG-antibody binding” (The Regents of the University of California, priority 1998, dated 2003).
Ends that are not written are not given here.

Columns and labels:
[1] = tested on: MOG- and MBP-specific autoantibodies in MS lesions; test: Immunogold-labeled peptide staining of human MS CNS tissue; assay type: binding; settings: acute human MS lesions
Description: Immunogold labeling was performed on ultra-thin sections of frozen or fixed tissues. Gold conjugates were prepared of (1) three MOG peptides (amino acids [aa] 1-20, aa 21-40, and aa 41-60 of human MOG (SEQ ID NO:3)) with known encephalitogenic activity in marmosets; (2) one MOG peptide that has been shown not to be encephalitogenic in marmosets (aa 101-120); (3) one human myelin basic protein (MBP) peptide (aa 82-101) that is encephalitogenic in marmosets and immunodominant in humans with the DR2 haplotype; and, as a control, (4) a peptide of mouse serum albumin (MSA; aa 560-574). […] Immunoreactivity was detected on 1-μm epoxy sections of marmoset spinal cord tissue and active MS lesions. […]
(§1) As controls, sections were either pretreated with unlabeled encephalitogenic MOG peptides or MBP to block the reaction, reacted with unlabeled nonencephalitogenic MOG peptide (aa 101-120) before application of the gold conjugates, or treated with gold-labeled irrelevant antigens (histone or MSA) or irrelevant IgG (anti-goat). The specificity of the labeling with the gold conjugates of encephalitogenic MOG peptides was also assessed in western blots where the MOG protein was first reacted with immune marmoset serum. […]

[2] = tested on: antigen-specific autoantibody in situ (marmoset EAE lesions); test: Immunogold-labeled peptide staining of marmoset EAE CNS tissue sections; assay type: binding, C. jacchus marmoset; settings: conjugates 1:100, silver enhancement
Description: Immunogold labeling was performed on ultra-thin sections of frozen or fixed tissues. Gold conjugates were prepared of (1) three MOG peptides (amino acids [aa] 1-20, aa 21-40, and aa 41-60 of human MOG (SEQ ID NO:3)) with known encephalitogenic activity in marmosets; (2) one MOG peptide that has been shown not to be encephalitogenic in marmosets (aa 101-120); (3) one human myelin basic protein (MBP) peptide (aa 82-101) that is encephalitogenic in marmosets and immunodominant in humans with the DR2 haplotype; and, as a control, (4) a peptide of mouse serum albumin (MSA; aa 560-574). Peptides having human MOG subsequences were synthesized using standard Fmoc chemistry and purified (>95%) by HPLC (Research Genetics Inc., Huntsville, Ala.): MOG 1-20, MOG 21-40, […], MBP 82-101, and MSA 560-574. The gold conjugates were synthesized by using monosulfo-N-hydroxy succinimide-Nanogold labeling reagent (particle diameter, 1.4 nm), according to the manufacturer's instructions (Nanoprobes, Stonybrook, N.Y.), followed by extensive dialysis to remove unreacted peptide. Immunoreactivity was detected on 1-μm epoxy sections of marmoset spinal cord tissue and active MS lesions. For this, sections were etched with sodium ethoxide, equilibrated in PO4-buffered saline containing 0.05% Triton X-100, and blocked with 10% normal rabbit serum. Sections were incubated with peptide-immunogold conjugates (1:100 in buffer) for 2 hours at room temperature. After washing, detection was performed by using silver enhancement (Nanoprobes). Sections were counterstained with toluidine blue. […]
as §1

Substance | staining of vesiculated myelin networks by gold conjugate [1] | labeling of vesiculated myelin networks by gold conjugate [2]
MBP (aa 82-101): Nanogold conjugate of human myelin basic protein peptide aa 82-101 (PADPGSRPHLIRLFSRDAPG; also: Nanogold conjugate, attachment not given here) | to a lesser extent | failed to label
MSA, aa 560-574: Nanogold conjugate of control peptide of mouse serum albumin aa 560-574 (KPKATAEQLKTVMDD; also: Nanogold conjugate, attachment not given here) | not | failed to label
gold-conjugated MOG peptide (aa 21-40): Nanogold conjugate of human MOG peptide aa 21-40 (ELPCRISPGKNATGMEVGWY; also: Nanogold conjugate, attachment not given here) | – | Positive reactivity
